Assays:
Assay in all cases: relative viability (nuclei count vs DMSO), 5 days (fraction); higher = more cells survive
Serdemetan + Bortezomib = compound: c1ccc2c(CCNc3ccc(Nc4ccncc4)cc3)c[nH]c2c1 [Serdemetan] + CC(C)C[C@H](NC(=O)[C@H](Cc1ccccc1)NC(=O)c1cnccn1)B(O)O [Bortezomib] (partner 0.002 µM)
How it was run: (§1)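 After 5 days of treatment, lung cancer cells in 1536-well plates were fixed and stained in a single step (final 0.05% Triton X-100, 1% formaldehyde, 1 ug/ml Hoechst) and their nuclei counted on 4× images. Treatment had been applied by pin tool the day after seeding as one drug alone or as a fixed anchor-drug dose with five library-drug doses (not always all listed) in √10 steps. Relative viability is the nuclei count of treated wells divided by that of vehicle wells, and values are medians of duplicate plates.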

Serdemetan + Palbociclib = compound: c1ccc2c(CCNc3ccc(Nc4ccncc4)cc3)c[nH]c2c1 [Serdemetan] + CC(=O)c1c(C)c2cnc(Nc3ccc(N4CCNCC4)cn3)nc2n(C2CCCC2)c1=O [Palbociclib] (partner 0.5 µM)
How it was run: as §1

Serdemetan + AZD7762 = compound: c1ccc2c(CCNc3ccc(Nc4ccncc4)cc3)c[nH]c2c1 [Serdemetan] + NC(=O)Nc1cc(-c2cccc(F)c2)sc1C(=O)N[C@H]1CCCNC1 [AZD7762] (partner 0.2 µM)
How it was run: as §1

Selisistat + Alpelisib = compound: C1CC(C2=C(C1)C3=C(N2)C=CC(=C3)Cl)C(=O)N [Selisistat] + Cc1nc(NC(=O)N2CCC[C@H]2C(N)=O)sc1-c1ccnc(C(C)(C)C(F)(F)F)c1 [Alpelisib] (partner 2 µM)
How it was run: as §1

Cell Line	relative viability (Serdemetan + Bortezomib; first compound 0.04 µM)	relative viability (Serdemetan + Bortezomib; first compound 0.1265 µM)	relative viability (Serdemetan + Bortezomib; first compound 0.4 µM)	relative viability (Serdemetan + Bortezomib; first compound 1.265 µM)	relative viability (Serdemetan + Bortezomib; first compound 4 µM)	relative viability (Serdemetan + Palbociclib; first compound 0.04 µM)	relative viability (Serdemetan + Palbociclib; first compound 0.1265 µM)	relative viability (Serdemetan + Palbociclib; first compound 0.4 µM)	relative viability (Serdemetan + Palbociclib; first compound 1.265 µM)	relative viability (Serdemetan + Palbociclib; first compound 4 µM)	relative viability (Serdemetan + AZD7762; first compound 0.04 µM)	relative viability (Serdemetan + AZD7762; first compound 0.1265 µM)	relative viability (Serdemetan + AZD7762; first compound 0.4 µM)	relative viability (Serdemetan + AZD7762; first compound 1.265 µM)	relative viability (Serdemetan + AZD7762; first compound 4 µM)	relative viability (Selisistat + Alpelisib; first compound 0.4 µM)	relative viability (Selisistat + Alpelisib; first compound 1.265 µM)	relative viability (Selisistat + Alpelisib; first compound 4 µM)	relative viability (Selisistat + Alpelisib; first compound 12.65 µM)	relative viability (Selisistat + Alpelisib; first compound 40 µM)
EMC-BAC-2	1.07	1.06	1.04	0.907	0.939	0.508	0.523	0.493	0.479	0.463	1.08	1.1	1.07	0.955	0.827	0.693	0.708	0.674	0.697	0.777
NCI-H2170						0.362	0.428	0.411	0.301	0.382	0.891	0.964	0.873	0.746	0.758	0.885	0.805	0.815	0.771	0.881
NCI-H1299	0.985	1.01	0.989	0.887	0.804											1.02	1.05	1.14	1.03	1.03
EBC-1	0.482	0.575	0.588	0.563	0.421											0.982	0.891	0.806	0.807	0.911
NCI-H2342						0.528	0.494	0.508	0.481	0.489	0.516	0.467	0.545	0.39	0.457					
ChaGo-K-1		1.14	0.697	0.775	0.849	0.864	0.746	0.488	0.271	0.296	0.876	0.801	0.75	0.507	0.545					
COR-L23	0.918	0.863	0.996	0.669	0.978	0.235	0.3	0.349	0.213	0.236						0.921	0.872	0.793	0.767	0.766
COR-L 105	0.775	0.764	0.563	0.7	0.745	0.4	0.403	0.359	0.297	0.411						0.888	0.929	1.03	0.964	0.846
LK-2						0.69	0.704	0.778	0.517	0.496	0.454	0.304	0.357	0.269	0.251	1.05	0.968	0.981	0.989	1.01
NCI-H596	1.17	0.606	1.11	0.649	0.818						1.17	1.19	1.08	0.922	1.16	0.587	0.482	0.42	0.502	0.482
NCI-H2023	0.74	0.985	0.9	0.485	0.28	0.355	0.328	0.341	0.263	0.215						0.594	0.52	0.608	0.59	0.592
NCI-H1944						0.364	0.355	0.31	0.253	0.221	0.43	0.647	0.626	0.291	0.281	0.92	0.779		0.729	0.823
NCI-H1793						0.355	0.325	0.308	0.242	0.271	0.367	0.313	0.335	0.181	0.192	0.859	0.625		0.958	0.834
NCI-H520	0.752	0.561	0.615	0.476	0.572	0.261	0.215	0.252	0.179	0.193						0.762	0.736	1.07	0.957	0.73
A549																0.976	0.841	0.652	0.843	0.901
NCI-H358						0.134	0.135	0.132	0.122	0.117	0.525	0.5	0.455	0.335	0.381	0.865	0.942		0.932	0.912
NCI-H1563	0.723	0.925	0.692	0.742	0.648											0.834	0.889	0.853	0.778	0.773
NCI-H1395						0.605	0.643	0.626	0.555	0.436	0.42	0.398	0.415	0.369	0.384	1.07	1.01	0.977	0.864	0.996
NCI-H2009	0.95	0.986	0.929	0.787	0.797	0.238	0.227	0.258	0.162	0.193						1.22	1.1	1.25	0.835	1.12
SW 900						0.615	0.58	0.59	0.451	0.361	0.647	0.652	0.616	0.437	0.359					
IA-LM	0.846	0.854	0.784	0.535	0.324											0.882	0.79	0.545	0.74	0.696
SK-LU-1	1.15	0.921	1.24	1.1	0.988	0.37	0.393	0.365	0.319	0.346						1.02	1.05	1.33	1.03	0.846
NCI-H1703	0.345	0.313	0.396	0.362	0.262						0.176	0.121	0.121		0.108	0.28	0.385	0.265	0.336	0.397
NCI-H1648							0.233	0.242	0.219	0.212		0.809	0.762	0.594	0.482					
